From patent publication EP0333028A1, “1-Substituted 4-pentafluorophenoxypiperidines, a process for their preparation and their use as medicaments” (HOECHST-ROUSSEL PHARMACEUTICALS INCORPORATED, priority 1988, dated 1989)

What was measured:
Assay type in all cases: in vivo
[1] = tested on: spontaneous hypertensive rat; experiment: antihypertensive activity, indirect tail cuff method (SHR); details: 50 mg/kg p.o. for three days, measured on the third day, decrease in mean arterial blood pressure
Protocol: In this procedure a group of five animals is treated orally for three days with the test compound in relation to a control group of the same number. The drop in blood pressure is measured on the third day following administration. […]

[2] = tested on: male mice (Charles River, CD-1); experiment: supramaximal electroshock (SES) assay; details: Mus musculus, ip, protection against extensor tonus after electroshock, read-out: Anticonvulsant Activity SES ED₅₀
Protocol: (§1) The compounds of this invention are useful as anticonvulsants due to their anticonvulsant activity in mammals. Anticonvulsant activity is measured in male mice using the supramaximal electroshock (SES) assay described in Arch. Int. Pharmacodyn. 92, pp. 97-107, (1952) and the metrazol lethality assay (MTZ) described in J. Pharmacol. Exp. Ther., 81, 402 (1944).
Groups of male mice (Charles River, CD-1) weighing 18 to 30 g are employed in the SES assay. Test compounds are dissolved in distilled water, or if insoluble, suspended in water containing one drop of a surfactant, such as Tween-80. Test compounds are generally administered intraperitoneally at a dose of 10 ml of solution, or suspension, per kg of animal body weight. The output terminals of an A.C. shocker, which delivers 206 volts rms for 300 msec, are placed across the animals' eyes, an electrode paste coating assuring contact of the terminals with the eyes. The test compound is administered and thereafter the subject animals are shocked.
Protection is expressed as normalized percent inhibition relative to vehicle control. [formula] A time response is carried out using 6 animals per group. Animals are tested at 30, 60 and 120 minutes post drug. Additional time periods are tested if indicated by previous tests. A dose range determination is generally reserved for those compounds which inhibit convulsions by greater than about 45-55% at the screening dose employed at the time the test was performed. When the peak activity time has been determined, a dose response is initiated, using 10 animals per group at that time period.

[3] = tested on: male mice (Charles River, CD-1); experiment: Metrazol lethality assay (MTZ); details: Mus musculus, po, protection against Metrazol lethality, read-out: Anticonvulsant Activity MTZ ED₅₀
Protocol: as §1
Groups of male mice (Charles River, CD-1), weighing 18 to 30 grams are employed in the Metrazol lethality assay. Test compounds are dissolved in distilled water or if insoluble, suspended in water, to which a surfactant, such as Tween-80 is added. The test compounds are administered orally, the administered dose being dissolved or suspended in 10 ml of solution or suspension per kg of animal body weight. Control aminals (2 mice/group) receive water or water and Tween-80, i.e., the vehicle for administration of the test compound. Metrazol (pentylenetetrazol) is dissolved in water (concentration 225 mg of Metrazol/10 ml of solution), and the solution is administered subcutaneously to groups of five animals each at one or more time intervals of 15, 30, 60, 90, or 120 minutes after administration of the test compound. The number of animal alive 15 minutes after treatment with Metrazol is determined and recorded. The following formula is employed to calculate the percent protection against Metrazol lethality. [formula]
A dose range determination is performed by substantially the same procedure as the time response determination. In the dose range determination, five groups of 10 animals per group are employed. This determination is generally reserved for those compounds which protect against lethality by greater than 70% at the screening dose employed.

[4] = tested on: male mice (Charles River, CD-1); experiment: tetrabenazine induced ptosis assay (TBZ); details: Mus musculus, ip, 50% inhibition of tetrabenazine-induced ptosis, read-out: Antidepressant Activity TBZ ED₅₀
Protocol: The compounds of this invention are also useful as antidepressants by virtue of their ability to elicit an antidepressant response in mammals. […] In the tetrabenazine induced ptosis assay, male mice (Charles River, CD-1), weighing 20 to 39 g, are used in test groups of five animals. Test compounds are dissolved, or suspended with 1 drop of Tween-80, in distilled water and administered to the animals in volumes of 10 cc per kg of body weight. Tetrabenazine methanesulfonate (76.78% as the free base) is dissolved in distilled water and the concentration of the solution is adjusted so that the dose, administered intraperitoneally (i.p.) to the animals, is 40 mg of tetrabenazine base per kg of animal body weight. The test compound is administered intraperitoneally (i.p.) or perorally (p.o.) to the subject animals, and the tetrabenazine solution is administered 30 minutes or 60 minutes, respectively, thereafter. […] The subject animals are placed in individual plastic containers of the size 26.7 cm x 20.3 cm x 15.2 cm (10.1/2" x 8" x 6") thirty (i.p.) and sixty minutes (p.o.) after administration of the tetrabenazine solution, and one minute thereafter, the animals scored for ptosis on the following scale: [table] […] The results are discarded and the test is repeated, if the control score is determined to be less than 17. […]

N=C(N)NCCN1CCCCCCC1 [Guanethidine, reference compound]
mm dec. in blood pressure at 50 mg/kg p.o. [1]: 20 mm Hg

CCC1(c2ccccc2)C(=O)NC(=O)NC1=O [Phenobarbital, reference compound]
ED50 [2]: 8.4 mg/kg
ED50 [3]: 16.9 mg/kg

NC(=O)N1CCC(Oc2c(F)c(F)c(F)c(F)c2F)CC1 [Example 7, 1-Aminocarbonyl-4-(2,3,4,5,6-pentafluorophenoxy)piperidine]
mm dec. in blood pressure at 50 mg/kg p.o. [1]: 39 mm Hg

CNC(=O)N1CCC(Oc2c(F)c(F)c(F)c(F)c2F)CC1 [Example 1, 1-[(N-Methylamino)carbonyl]-4-(2,3,4,5,6-pentafluorophenoxy)piperidine]
ED50 [4]: 11.3 mg/kg
ED50 [2]: 62.5 mg/kg
ED50 [3]: 35.9 mg/kg

CC(=O)N1CCC(Oc2c(F)c(F)c(F)c(F)c2F)CC1 [Example 6, 1-Acetyl-4-(2,3,4,5,6-pentafluorophenoxy)piperidine]
mm dec. in blood pressure at 50 mg/kg p.o. [1]: 36 mm Hg

CN(C)C(=O)N1CCC(Oc2c(F)c(F)c(F)c(F)c2F)CC1 [Example 2, 1-[(N,N-Dimethylamino)carbonyl]-4-(2,3,4,5,6-pentafluorophenoxy)piperidine]
ED50 [2]: 50.2 mg/kg
ED50 [3]: 40.4 mg/kg

CN(C)CCC=C1c2ccccc2CCc2ccccc21 [Amitriptyline, reference compound]
ED50 [4]: 1.5 mg/kg
